# US7417156B2, “Orally active, antimalarial, anticancer, artemisinin-derived trioxane dimers” (Johns Hopkins University, priority 2002, dated 2008)
# Legend:
# [1] = test system: chloroquine-sensitive P. falciparum (NF54); assay: Antimalarial activity in vitro, [3H]hypoxanthine incorporation; type: cell-based; settings: Table I; NF54 strain; read-out: IC50
# 60 cell line panel = type: cell-based
# HL-60(TB) = assay: NCI 60 cell line panel screen (SRB); type: cell-based, human
# A549/ATCC = assay: NCI 60 cell line panel screen (SRB); type: cell-based, human
# EKVX = assay: NCI 60 cell line panel screen (SRB); type: cell-based, human
# NCI-H322M = type: cell-based
# NCI-H460 = assay: NCI 60 cell line panel screen (SRB); type: cell-based, human
# NCI-H522 = assay: NCI 60 cell line panel screen (SRB); type: cell-based, human
# COLO 205 = assay: NCI 60 cell line panel screen (SRB); type: cell-based, human
# HCT-116 = assay: NCI 60 cell line panel screen (SRB); type: cell-based, human
# HCT-15 = assay: NCI 60 cell line panel screen (SRB); type: cell-based, human
# HT29 = assay: NCI 60 cell line panel screen (SRB); type: cell-based, human
# SF-539 = assay: NCI 60 cell line panel screen (SRB); type: cell-based, human
# SNB-19 = assay: NCI 60 cell line panel screen (SRB); type: cell-based, human
# MALME-3M = assay: NCI 60 cell line panel screen (SRB); type: cell-based, human
# IGROVI = assay: NCI 60 cell line panel screen (SRB); type: cell-based, human; settings: IGROVI (Ovarian Cancer)
# OVCAR-3 = assay: NCI 60 cell line panel screen (SRB); type: cell-based, human
# 786-0 = assay: NCI 60 cell line panel screen (SRB); type: cell-based, human
# TK-10 = assay: NCI 60 cell line panel screen (SRB); type: cell-based, human
# UO-31 = assay: NCI 60 cell line panel screen (SRB); type: cell-based, human
# MCF7 = assay: NCI 60 cell line panel screen (SRB); type: cell-based, human
# NCI/ADR-RES = assay: NCI 60 cell line panel screen (SRB); type: cell-based, human
# T-47D = assay: NCI 60 cell line panel screen (SRB); type: cell-based, human
# [2] = mean value over the 60 cell line panel
smiles,measurement,setting,value
"CC1CCC2C(C)C(CC(O)(CC3OC4OC5(C)CCC6C(C)CCC(C3C)C46OO5)CS(=O)(=O)c3ccc(C(=O)O)cc3)OC3OC4(C)CCC1C32OO4 (stereo not drawn) [Compound 10c, bis-trioxane β-hydroxysulfone benzoic acid]",IC50,[1],2.4 nM
same,Log10GI50 Delta,60 cell line panel,−0.73
same,Log10GI50 Range,60 cell line panel,3.48
same,Log10LC50 Delta,60 cell line panel; 60 cell line panel,1.00
same,Log10LC50 Range,60 cell line panel; 60 cell line panel,1.25
same,Log10TGI50 Delta,60 cell line panel; 60 cell line panel,2.79
same,Log10TGI50 Range,60 cell line panel; 60 cell line panel,4.00
same,growth inhibition in words,"60 cell line panel; colon cancer KM12, ovarian cancer OVCAR 3, breast cancer MDA-MB-435",selectively and strong inhibitory
same,Log10GI50 MG MID,60 cell line panel; mean over panel,−7.57
same,Log10LC50 MG MID,60 cell line panel; [2],−4.55 log10M
same,Log10TGI50 MG MID,60 cell line panel; [2],−5.51 log10M
same,Log10LC50,"HL-60(TB); HL-60(TB) (Leukemia), LC50: PG=−50",>−4.30 log10M
same,Log10TGI50,"HL-60(TB); HL-60(TB) (Leukemia), TGI: PG=0",<−8.30 log10M
same,Log10GI50,"HL-60(TB); Leukemia, HL-60(TB)",<−8.30
same,Log10LC50,"A549/ATCC; A549/ATCC (Non-Small Cell Lung Cancer), LC50: PG=−50",>−4.30 log10M
same,Log10TGI50,"A549/ATCC; A549/ATCC (Non-Small Cell Lung Cancer), TGI: PG=0",>−4.30 log10M
same,Log10GI50,"A549/ATCC; Non-Small Cell Lung Cancer, A549/ATCC",−5.28
same,Log10LC50,"EKVX; EKVX (Non-Small Cell Lung Cancer), LC50: PG=−50",>−4.30 log10M
same,Log10TGI50,"EKVX; EKVX (Non-Small Cell Lung Cancer), TGI: PG=0",−4.63 log10M
same,Log10GI50,"EKVX; Non-Small Cell Lung Cancer, EKVX",−4.99
same,Log10GI50,NCI-H322M,−6.03
same,Log10TGI50,NCI-H322M,−4.98 log10M
same,Log10LC50,"NCI-H322M; NCI-H322M (Non-Small Cell Lung Cancer), LC50: PG=−50",−4.57 log10M
same,Log10LC50,"NCI-H460; NCI-H460 (Non-Small Cell Lung Cancer), LC50: PG=−50",−4.62 log10M
same,Log10TGI50,"NCI-H460; NCI-H460 (Non-Small Cell Lung Cancer), TGI: PG=0",−5.11 log10M
same,Log10GI50,"NCI-H460; Non-Small Cell Lung Cancer, NCI-H460",<−8.30
same,Log10TGI50,"NCI-H522; NCI-H522 (Non-Small Cell Lung Cancer), TGI: PG=0",−4.34 log10M
same,Log10LC50,"NCI-H522; NCI-H-522 (Non-Small Cell Lung Cancer), LC50: PG=−50",>−4.30 log10M
same,Log10GI50,"NCI-H522; Non-Small Cell Lung Cancer, NCI-H522",<−8.30
same,Log10LC50,"COLO 205; COLO 205 (Colon Cancer), LC50: PG=−50",−5.55 log10M
same,Log10TGI50,"COLO 205; COLO 205 (Colon Cancer), TGI: PG=0",<−8.30 log10M
same,Log10GI50,"COLO 205; Colon Cancer, COLO 205",<−8.30
same,Log10GI50,"HCT-116; Colon Cancer, HCT-116",<−8.30
same,Log10LC50,"HCT-116; HCT-116 (Colon Cancer), LC50: PG=−50",−4.72 log10M
same,Log10TGI50,"HCT-116; HCT-116 (Colon Cancer), TGI: PG=0",−5.16 log10M
same,Log10GI50,"HCT-15; Colon Cancer, HCT-15",<−8.30
same,Log10LC50,"HCT-15; HCT-15 (Colon Cancer), LC50: PG=−50",−4.70 log10M
same,Log10TGI50,"HCT-15; HCT-15 (Colon Cancer), TGI: PG=0",−5.23 log10M
same,Log10GI50,"HT29; Colon Cancer, HT29",<−8.30
same,Log10LC50,"HT29; HT29 (Colon Cancer), LC50: PG=−50",>−4.30 log10M
same,Log10TGI50,"HT29; HT29 (Colon Cancer), TGI: PG=0",>−4.30 log10M
same,Log10GI50,"SF-539; CNS Cancer, SF-539",−5.19
same,Log10LC50,"SF-539; SF-539 (CNS Cancer), LC50: PG=−50",>−4.30 log10M
same,Log10TGI50,"SF-539; SF-539 (CNS Cancer), TGI: PG=0",−4.66 log10M
same,Log10GI50,"SNB-19; CNS Cancer, SNB-19",−6.72
same,Log10LC50,"SNB-19; SNB-19 (CNS Cancer), LC50: PG=−50",−4.44 log10M
same,Log10TGI50,"SNB-19; SNB-19 (CNS Cancer), TGI: PG=0",−4.96 log10M
same,Log10LC50,"MALME-3M; MALME-3M (Melanoma), LC50: PG=−50",−4.80 log10M
same,Log10TGI50,"MALME-3M; MALME-3M (Melanoma), TGI: PG=0",<−8.30 log10M
same,Log10GI50,"MALME-3M; Melanoma, MALME-3M",<−8.30
same,Log10LC50,IGROVI; LC50: PG=−50,>−4.30 log10M
same,Log10TGI50,IGROVI; TGI: PG=0,>−4.30 log10M
same,Log10LC50,"OVCAR-3; OVCAR-3 (Ovarian Cancer), LC50: PG=−50",−5.01 log10M
same,Log10TGI50,"OVCAR-3; OVCAR-3 (Ovarian Cancer), TGI: PG=0",<−8.30 log10M
same,Log10GI50,"OVCAR-3; Ovarian Cancer, OVCAR-3",<−8.30
same,Log10LC50,"786-0; 786-0 (Renal Cancer), LC50: PG=−50",−4.64 log10M
same,Log10TGI50,"786-0; 786-0 (Renal Cancer), TGI: PG=0",−5.08 log10M
same,Log10GI50,"786-0; Renal Cancer, 786-0",<−8.30
same,Log10GI50,"TK-10; Renal Cancer, TK-10",<−8.30
same,Log10LC50,"TK-10; TK-10 (Renal Cancer), LC50: PG=−50",−4.62 log10M
same,Log10TGI50,"TK-10; TK-10 (Renal Cancer), TGI: PG=0",−5.40 log10M
same,Log10GI50,"UO-31; Renal Cancer, UO-31",−5.91
same,Log10LC50,"UO-31; UO-31 (Renal Cancer), LC50: PG=−50",>−4.30 log10M
same,Log10TGI50,"UO-31; UO-31 (Renal Cancer), TGI: PG=0",>−4.30 log10M
same,Log10GI50,"MCF7; Breast Cancer, MCF7",<−8.30
same,Log10LC50,"MCF7; MCF7 (Breast Cancer), LC50: PG=−50",>−4.30 log10M
same,Log10TGI50,"MCF7; MCF7 (Breast Cancer), TGI: PG=0",−5.13 log10M
same,Log10GI50,"NCI/ADR-RES; Breast Cancer, NCI/ADR-RES",−5.73
same,Log10LC50,"NCI/ADR-RES; NCI/ADR-RES (Breast Cancer), LC50: PG=−50",−4.63 log10M
same,Log10TGI50,"NCI/ADR-RES; NCI/ADR-RES (Breast Cancer), TGI: PG=0",−5.09 log10M
same,Log10GI50,"T-47D; Breast Cancer, T-47D",<−8.30
same,Log10LC50,"T-47D; T-47D (Breast Cancer), LC50: PG=−50",>−4.30 log10M
